Experimental data published in US6864086B2, “Nitric oxide-scavenging system for culturing oocytes, embryos, or other cells” (Board of Supervisors of Louisiana State University and …, priority 1998, dated 2005).
Marks after values point to notes of the source that are not given here.

System: inseminated bovine oocytes co-cultured with cumulus-granulosa cells
Experiment: Example 5: Hb (1 μg/ml) added to mBECM-C at different times of co-culture with CGs
Assay type: cell-based
Conditions: for No of embryos developed to the 2-cell / % of embryos developed to the 2-cell: examined 48 h; for No of embryos developed to the 8-cell / % of embryos developed to the 8-cell: examined 60 h; for No of embryos developed to the 16-cell / % of embryos developed to the 16-cell: examined 120 h; for No of embryos developed to the Morula / % of embryos developed to the Morula: examined 144 h; for No of embryos developed to the Blastocyst / % of embryos developed to the Blastocyst: examined 192 h
Method: mBECM containing 10 μM β-mercaptoethanol was used to culture embryos, as described in J. Lim et al., “Roles of growth factors in the development of bovine embryos fertilized in vitro and cultured singly in a defined medium,” Reprod. Fertil. Dev., 8, 1199-1205 (1996). To culture individual 8-cell embryos we used mBECM supplemented with 1 ng/ml platelet derived growth factor type AB (PDGF; Upstate Biotechnology Inc., Lake Placid, N.Y.), 1 ng/ml transforming growth factor-β (TGF; R & D System, Minneapolis, Minn.), 50 ng/ml arachidonic acid (AA; Cayman Chemical Co., Ann Arbor, Mich.), 100 μM glutathione (GSH; Sigma Co.) and 1 mg/ml polyvinyl alcohol (PVA) (mBECM-S). mBECM to which 10% (v/v) FBS was added (mBECM-C) was used for co-culturing inseminated zygotes with CGs and for producing 8-cell embryos. Osmolarity of the medium was maintained within the range of 265-290 mOsm.
The bovine cumulus-oocyte complexes (COCs) used were collected in Madison, Wis. (BOMED, Inc.), and were shipped in 2-ml of maturation medium in a battery powered incubator via overnight express mail service. Oocytes matured during transit and arrived within 24 h after exposure to maturation medium, pre-equilibrated at 39° C. in 5% CO2 in air. At 22-24 h after exposure to the medium, the COCs were inseminated in vitro as described in J. Lim et al., “Intracytoplasmic glutathione concentration and the role of β-mercaptoethanol in preimplantation development of bovine embryos,” Theriogenology, 46, 429-439 (1996). At 18 h post-insemination, COCs were cultured in groups (30-35 embryos) in a 4-well multidish (Nunc, Roskilde, Denmark) containing 0.8-ml of mBECM-C. Embryos were dislodged from CGs at 36-48 h post-insemination.
In Example 1, embryos (83-85 per group) collected 18 h post-insemination were cultured in mBECM-C, to which 0, 0.008, or 0.04 mM SNP was added at 18 or 60 h post-insemination. In Example 2, 8-cell embryos (80 per group) were produced in a co-culture system containing CGs and mBECM-C, and then beginning at 60 h post-insemination were cultured singly in a defined culture medium (mBECM-S), to which 0, 0.0016, 0.008, or 0.04 mM of SNP (S-0501, Sigma Co.) was added. In Example 3 embryos, either uncleaved (n=99) or developed to the 2-cell stage (90), were collected 48 h post-insemination; and cleaved embryos, either developed to the morula stage (69) or degenerate (63) were collected 144 h post-insemination. NO metabolites were then measured in the embryos. In Example 4, three groups of 95 zygotes each were co-cultured with CGs in mBECM-C, to which 0, 1, or 10 μg/ml Hb (bovine, mainly methemoglobin, H-2500, Sigma Co.) was added. […] In Example 6, inseminated oocytes (93 per group) were cultured in the presence or absence of CGs in mBECM-C to which either 0 or 1 μg/ml Hb was added. In Example 7, 8-cell embryos (100 per group), obtained after culture in mBECM-C supplemented with Hb (1 μg/ml), were cultured singly in mBECM-S, with or without Hb.
Oocytes or 8-cell embryos were randomly and equally allocated to each treatment group. In Examples 1, 2, and 4-7, oocytes or embryos that had developed to the 2-cell, 8-cell, >8-cell, 16-cell morula, and blastocyst stages were individually scored ‘1’ (developed) at 48, 60, 96, 120, 144 and 192 h post-insemination, respectively. […] Sums of the scores in each stage of development were evaluated by analysis of variance (ANOVA) using the general linear model (PROC-GLM) in the SAS program software. In Example 3, concentrations of NO metabolites in embryos were subjected to ANOVA. […] Differences were regarded as statistically significant where P values were less than 0.05.

[1] = Hb 1 μg/ml added 18 h post-insemination (1-cell)
[2] = Hb 1 μg/ml added 18 h post-insemination (1-cell), 104 oocytes
[3] = Hb 1 μg/ml added 60 h post-insemination (8-cell)
[4] = Hb 1 μg/ml added 60 h post-insemination (8-cell), 104 oocytes
[5] = Hb 1 μg/ml added 144 h post-insemination (Morula)
[6] = Hb 1 μg/ml added 144 h post-insemination (Morula), 103 oocytes

hemoglobin [Hb] was tested, and the “Ratio of blastocysts to morulae” value [1] was 0.74, the “No of embryos developed to the 2-cell” value [2] was 76 and the “No of embryos developed to the 8-cell” value [2] was 52. For the same substance, the “No of embryos developed to the 16-cell” value [2] was 45, the “No of embryos developed to the Morula” value [2] was 34 and the “No of embryos developed to the Blastocyst” value (from here on “No … to the Blastocyst”) [2] was 25. The “% of embryos developed to the 2-cell” value [1] was 73%, the “% of embryos developed to the 8-cell” value [1] was 50% and the “% of embryos developed to the 16-cell” value [1] was 43%. The “% of embryos developed to the Morula” value [1] was 33%, the “% of embryos developed to the Blastocyst” value [1] was 24% and the “Ratio of blastocysts to morulae” value [3] was 1.00. The “No of embryos developed to the 2-cell” value [4] was 67, the “No of embryos developed to the 8-cell” value [4] was 40 and the “No of embryos developed to the 16-cell” value [4] was 35. The “No of embryos developed to the Morula” value [4] was 30, the “No … to the Blastocyst” value [4] was 30 and the “% of embryos developed to the 2-cell” value [3] was 64%. The “% of embryos developed to the 8-cell” value [3] was 38%, the “% of embryos developed to the 16-cell” value [3] was 34% and the “% of embryos developed to the Morula” value [3] was 29%. For the same substance, the “% of embryos developed to the Blastocyst” value [3] was 29%, the “Ratio of blastocysts to morulae” value [5] was 0.96 and the “No of embryos developed to the 2-cell” value [6] was 64. The “No of embryos developed to the 8-cell” value [6] was 34, the “No of embryos developed to the 16-cell” value [6] was 28 and the “No of embryos developed to the Morula” value [6] was 23. The “No … to the Blastocyst” value [6] was 22 (22)^c,d, the “% of embryos developed to the 2-cell” value [5] was 62% and the “% of embryos developed to the 8-cell” value [5] was 33%. The “% of embryos developed to the 16-cell” value [5] was 27%, the “% of embryos developed to the Morula” value [5] was 22% and the “% of embryos developed to the Blastocyst” value [5] was 22 (22)^c,d %. For the same substance, the proportion of blastocysts (Hb 1 μg/ml added at 18 or 60 h post-insemination, controls 13%) was 24-29%.
